Values quoted from earlier work as cited in paper PMC11765717, “In Vitro Insights into Bacteriocin-Mediated Modulation of Chicken Cecal Microbiota” (International Journal of Molecular Sciences, 2025).

Tests used:
L. ivanovii = tested on: L. ivanovii; parameters: method as in PMID 35170996; details: sensitive strain L. ivanovii; ref [64]; cited from earlier work
[1] = ref [67],[76]; cited from earlier work

## Pediocin PA-1 (M31L) (KYYGNGVTCGKHSCSVDWGKATTCIINNGALAWATGGHQGNHKC; UniProt P29430 19-62, looked up, variant M31L)
L. ivanovii
  MIC (µg/mL): 0.09 µg/mL
[1]
  Antibacterial activity in conditions mimicking the small intestine, in words: losing its antibacterial activity completely
